Data published in ChEMBL document CHEMBL6182916, “Unexpected Discovery of a Novel Triphenylphosphonium Alkylalcohol That Triggers Cancer Cell Death via Mitophagy and Ferroptosis” (J Med Chem, 2025).
Calls of active or inactive are those of the source. No cut-off for these calls is given here.

Tests used:
[1] = tested on: HCC827; experiment: Induction of apoptosis in human HCC827 cells assessed as late apoptotic cells at 1 uM measured after 24 hrs by annexin V and PI staining based flow cytometry analysis (reference value: 2.18%); assay type: functional
[2] = Antiproliferative activity against human LO2 cells assessed as inhibition of cell growth measured after 72 hrs by MTT assay; assay type: toxicity, cell-based, L02
[3] = tested on: Mitochondrial membrane; experiment: Induction of mitochondrial membrane depolarization in human HCC827 cells assessed as decrease in red fluorescence at 0.125 to 0.5 uM incubated for 4 hrs by JC-1 staining based confocal microscopy analysis; assay type: cell membranes; conditions: dose 0.125-0.5 µM
[4] = tested on: HCC827; experiment: Effect on NDUFB8 expression in human HCC827 cells at 0.25 to 0.5 uM incubated for 24 hrs by Western blot analysis; assay type: functional, cell-based; conditions: dose 0.25-0.5 µM
[5] = tested on: HCC827; experiment: Inhibition of colony formation in human HCC827 cells incubated for 72 hrs by crystal violet staining based analysis; assay type: functional, cell-based; conditions: dose 50-100 nM
[6] = tested on: HCC827; experiment: Antiproliferative activity against human HCC827 cells assessed as cell viability at 1 uM measured after 48 hrs in presence of SAS by MTT assay relative to control; assay type: functional; conditions: read-out: Activity
[7] = tested on: HeLa; experiment: Induction of mitophagy in human HeLa cells harbouring mCherry-GFP tag assessed as reduction in GFP fluorescence at 0.5 uM incubated for 24 hrs by confocal microscopy analysis; assay type: functional, cell-based
[8] = tested on: HCC827; experiment: Induction of apoptosis in human HCC827 cells assessed as viable cells at 1 uM measured after 36 hrs by annexin V and PI staining based flow cytometry analysis (reference value: 95.10%); assay type: functional; conditions: read-out: Activity
[9] = tested on: HCC827; experiment: Induction of apoptosis in human HCC827 cells assessed as viable cells at 1 uM measured after 48 hrs by annexin V and PI staining based flow cytometry analysis (reference value: 95.10%); assay type: functional; conditions: read-out: Activity
[10] = Toxicity in female BALB/c mouse assessed as histopathological changes in lung at 30 mg/kg, ip measured for 7 days by H and E staining based analysis; assay type: organism-based; conditions: in vivo, 168 h, time 7 day
[11] = tested on: HCC827; experiment: Induction of apoptosis in human HCC827 cells assessed as early apoptotic cells at 1 uM measured after 48 hrs by annexin V and PI staining based flow cytometry analysis (reference value: 1.80%); assay type: functional
[12] = tested on: HCC827; experiment: Induction of apoptosis in human HCC827 cells assessed as necrotic cells at 1 uM measured after 48 hrs by annexin V and PI staining based flow cytometry analysis (Rvb =0.84%); assay type: functional
[13] = tested on: HCC827; experiment: Induction of apoptosis in human HCC827 cells assessed as necrotic cells at 1 uM measured after 48 hrs by annexin V and PI staining based flow cytometry analysis (reference value: 1.18%); assay type: functional
[14] = tested on: NCI-H1299; experiment: Antiproliferative activity against human NCI-H1299 cells assessed as inhibition of cell growth measured after 72 hrs by MTT assay; assay type: functional, cell-based; conditions: NCI-H1299, 72 h
[15] = tested on: HCC827; experiment: Induction of mitochondrial dysfunction in human HCC827 cells assessed as suppression of basal respiration incubated for 4 hrs by Seahorse XF96 extracellular flux analyzer; assay type: functional, cell-based; conditions: dose 0.125-5 µM
[16] = tested on: HCC827; experiment: Antimetastatic activity against human HCC827 cells xenografted in female nude mouse model assessed as decrease in vimentin level at 5 to 10 mg/kg, ip by Western blot analysis; assay type: functional, organism-based; conditions: dose 5-10 mg/kg
[17] = tested on: HEK-293T; experiment: Downregulation of TIMM23 expression level in human HEK293T cells; assay type: functional, cell-based; conditions: dose 0.25-0.5 µM
[18] = tested on: HCC827; experiment: Downregulation of TIMM23 expression level in human HCC827 cells at 0.5 uM by Western blot analysis; assay type: functional, cell-based; conditions: time 3-24 hrs
[19] = Toxicity in male Kunming mouse assessed as change in body weight at 50 mg/kg, ip measured every two days for 7 days; assay type: organism-based; conditions: in vivo, 168 h, time 7 day
[20] = tested on: HCC827; experiment: Antiproliferative activity against human HCC827 cells assessed as cell viability at 1 uM measured after 48 hrs in presence of ferrostatin-1 by MTT assay relative to control; assay type: functional; conditions: read-out: Activity
[21] = tested on: NCI-H460; experiment: Antiproliferative activity against human NCI-H460 cells assessed as inhibition of cell growth measured after 72 hrs by MTT assay; assay type: functional, cell-based; conditions: NCI-H460, 72 h
[22] = tested on: HCC827; experiment: Effect on NDUFB8 expression in human HCC827 cells at 0.25 to 0.5 uM; assay type: functional, cell-based; conditions: dose 0.25-0.5 µM
[23] = Toxicity in female BALB/c mouse assessed as effect on body weight at 30 mg/kg, ip measured for 7 days; assay type: organism-based; conditions: in vivo, 168 h, time 7 day
[24] = tested on: HCC827; experiment: Induction of ROS generation in human HCC827 cells at 1 uM incubated for 4 hrs in presence of NAC by DCFH-DA staining based by absorbance based laser confocal microscopic analysis; assay type: functional, cell-based
[25] = tested on: HCC827; experiment: Induction of cell cycle arrest in human HCC827 cells assessed as accumulation of cells at G1 phase incubated for 24 hrs by PI staining based flow cytometry analysis; assay type: functional; conditions: dose 0.1-0.4 µM
[26] = Toxicity in female BALB/c mouse assessed as histopathological changes in heart at 30 mg/kg, ip measured for 7 days by H and E staining based analysis; assay type: organism-based; conditions: in vivo, 168 h, time 7 day
[27] = Toxicity in male Kunming mouse assessed as change in body weight at 70 mg/kg, ip measured every two days for 7 days; assay type: organism-based; conditions: in vivo, 168 h, time 7 day
[28] = tested on: BEAS-2B; experiment: Inhibition of colony formation in human BEAS-2B cells at 0.05 to 0.1 uM incubated for 72 hrs by crystal violet staining based analysis; assay type: functional, cell-based; conditions: dose 0.05-0.1 µM
[29] = tested on: HCC827; experiment: Antimetastatic activity against human HCC827 cells xenografted in female nude mouse model assessed as decrease in snail level at 5 to 10 mg/kg, ip by Western blot analysis; assay type: functional, organism-based; conditions: dose 5-10 mg/kg
[30] = tested on: HCC827; experiment: Induction of mitochondrial dysfunction in human HCC827 cells assessed as appearance of disrupted cristae at 1 uM after 24 hrs by TEM analysis; assay type: functional, cell-based
[31] = tested on: BEAS-2B; experiment: Induction of mitochondrial dysfunction in human BEAS-2B cells assessed as reduction in glycolytic reserve at 0.125 to 5 uM incubated for 4 hrs by Seahorse XF96 extracellular flux analyzer; assay type: functional, cell-based; conditions: dose 0.125-5 µM
[32] = tested on: HCC827; experiment: Inhibition of cell migration in human HCC827 cells at 0.05 to 0.1 uM incubated for 24 hrs by crystal violet staining based transwell assay; assay type: functional; conditions: dose 0.05-0.1 µM
[33] = tested on: HCC827; experiment: Effect on COX1 expression in human HCC827 cells at 0.25 to 0.5 uM incubated for 24 hrs by Western blot analysis; assay type: functional, cell-based; conditions: dose 0.25-0.5 µM
[34] = tested on: Osimertinib-resistant NCI-H1975 cell; experiment: Antiproliferative activity against human Osimertinib-resistant NCI-H1975 cell assessed as inhibition of cell growth measured after 72 hrs by MTT assay; assay type: functional, cell-based
[35] = tested on: HCC827; experiment: Downregulation of HK-2 expression level in human HCC827 cells incubated for 24 hrs by Western blot analysis; assay type: functional, cell-based; conditions: dose 0.25-0.5 µM
[36] = tested on: HCC827; experiment: Downregulation of TOMM20 expression level in human HCC827 cells incubated for 24 hrs by Western blot analysis; assay type: functional, cell-based; conditions: dose 0.25-0.5 µM
[37] = tested on: HCC827; experiment: Induction of cell cycle arrest in human HCC827 cells assessed as accumulation of cells at S phase at 0.4 uM incubated for 24 hrs by PI staining based flow cytometry analysis (reference value: 26.41%); assay type: functional
[38] = tested on: HCC827; experiment: Induction of ROS generation in human HCC827 cells assessed as increase in superoxide anion level by measuring increase in red fluorescence intensity at 1 uM incubated for 4 hrs by laser scanning confocal fluorescence microscopic analysis; assay type: functional, cell-based

In the case of `Cc1ccc([P+](CCCCCCCCCCO)(c2ccc(C)cc2)c2ccc(C)cc2)cc1.[Br-]`, the Activity [1] is reported as 3.84%, the IC50 at 72 h [2] is reported as 1310 nM and the Activity [3] is reported as “Active”. For the same molecule, the Activity [4] was “Active”, the inhibition [5] was “Dose-dependent-effect” and the viability at 1 µM [6] was 7.48%. For the same molecule, the Activity [7] was “Active”, the viability at 1 µM [8] was 98.5% and the viability at 1 µM [9] was 91.9%. For the same molecule, the Activity [10] was “Non-toxic”, the Activity [11] was 5.33% and the Activity [12] was 2.02%. The Activity [13] was 2.19%, the IC50 [14] was 210 nM and the Activity [15] was “Dose-dependent-effect”. The Activity [16] was “Active”, the Activity [17] was “Dose-dependent-effect” and the Activity [18] was “Time-dependent-effect”. For the same molecule, the Activity [19] was “Toxic”, the viability at 1 µM [20] was 51.4% and the IC50 [21] was 110 nM. The Activity [22] was “Active”, the Activity [23] was “Non-toxic” and the Activity [24] was “inactive”. The Activity [25] was “Dose-dependent-effect”, the Activity [26] was “Non-toxic” and the Activity [27] was “Toxic”. For the same molecule, the inhibition [28] was “Minimal_effect”, the Activity [29] was “Active” and the Activity [30] was “Active”. For the same molecule, the Activity [31] was “Minimal_effect”, the inhibition [32] was “Active” and the Activity [33] was “Active”. For the same molecule, the IC50 [34] was 230 nM, the Activity [35] was “Dose-dependent-effect” and the Activity [36] was “Dose-dependent-effect”. For the same molecule, the Activity [37] was 9.39% and the Activity [38] was “Active”.
